{"source": "patent US12459940B2", "about": "“Oxazole compound as multi-targeted inhibitor of IRAK4 and BTK” (SHANGHAI FOSUN PHARMACEUTICAL INDUSTRIAL DEVELOPMENT CO., …, priority 2019, dated 2025)", "key": {"[1]": {"tested_on": "OCI-LY10 human B-cell lymphoma cells", "assay": "OCI-LY10 cell proliferation inhibition (CellTiter-Glo)", "assay_type": "cell-based", "conditions": "OCI-Ly10, 72 h, treated for 3 days", "protocol": "OCI-LY10 human B-cell lymphoma cells were cultured in a 37° C., 5% CO2 incubator. The composition of medium was IMDM (GIBCO, Cat #12440053); the supplementary compositions were 20% FBS (Hyclone, Cat #SH30084.03); 1% PenStrep (Thermo, Cat #SV30010).\n(§1) The tumor cell lines OCI-LY10 and TMD8 were used to detect the effect of the compound on inhibiting tumor cell proliferation in vitro. The tumor cell line was cultured in a 37° C., 5% CO2 incubator according to the culture conditions shown, and passaged regularly, then the cells in the logarithmic growth phase were taken, counted, and spread in a 96-well plate (the cells in each well were adjusted to an appropriate concentration, a total of […] per well was added). After incubating overnight in a 37° C., 5% CO2 incubator, drugs with different concentration gradients (10 μL of drug solution was added) were added and treated for 3 days, then 50 μL of CellTiter-Glo working solution was added to each well, and the cell plate was wrapped with aluminum foil to avoid light. The culture plate was shaken on an orbital shaker for 2 minutes to induce cell lysis, and placed at room temperature for 10 minutes to stabilize the luminescence signal, then the luminescence signal was detected on the 2104 EnVision plate reader.\n(§2) The Inhibition rate (IR) of the tested compound was calculated using the following formula: IR (%)=(1−(RLU compound−RLU blank control)/(RLU solvent control−RLU blank control))*100%.\n(§3) The inhibition rates of different concentrations of the compounds were calculated in Excel, and then the inhibition curves were made by GraphPad Prism software and the related parameters were calculated, including the minimum inhibition rate, the maximum inhibition rate and IC50."}, "[2]": {"tested_on": "TNF-α production in THP-1 cells", "assay": "THP-1 cytological TNFa ELISA assay (LPS-stimulated)", "assay_type": "cell-based", "conditions": "Homo sapiens, TNF-α in culture supernatant, 150 ng/mL LPS, 18 hours", "protocol": "THP-1 human acute […] leukemia cells were purchased from ATCC (Cat #TIB-202) and cultured at 37° C. in 5% CO2 incubator. The composition of medium was RPMI1640 (Gibco, Cat #22400-105), and the supplementary compositions were 10% FBS (Gibco, Cat #10091148); 1% PenStrep (Gibco, Cat #15140); 0.05 mM 2-Mercaptoethanol (Sigma, Cat #M6250).\nTNF-α Elisa kit was used to detect the content of TNF-α in cell culture supernatant samples. TNF-α was produced by stimulating THP-1 cells with 150 ng/mL LPS (Sigma, Cat #L6529).\nTHP-1 cells cultured normally at logarithmic growth stage were seeded in a 96-well plate (Corning #3599) at a certain concentration (1*10^5/100 μL) and then put into a cell incubator for incubation. After two hours, 16.7 μL of different concentrations of the compound to be tested (8*final concentration) were added and incubated in an incubator. After one hour, 16.7 μL of 1200 ng/mL LPS was added and incubated in an incubator. After 18 hours, the culture supernatant samples were collected by centrifugation, and the content of TNF-α could be detected by TNF-α Elisa kit. Finally, OD signals (OD450-OD570) were read on envision board reader.\nThe OD450-OD570 signal value was converted into a percentage inhibition rate. Inhibition rate %=(ZPE−sample)/(ZPE−HPE)*100.\n“HPE” refers to the OD450-OD570 signal value of the control well without LPS stimulated cells, and “ZPE” refers to the OD450-OD570 signal value of the control well with LPS stimulated cells. The IC50 value of the compound was calculated by XLFit in the excel add-in. Y=Bottom+(Top−Bottom)/(1+(IC50/X)^HillSlope). Equation: […]"}, "[3]": {"tested_on": "TMD8 human B-cell lymphoma cells", "assay": "TMD-8 cell proliferation inhibition (CellTiter-Glo)", "assay_type": "cell-based", "conditions": "TMD8, 72 h, treated for 3 days", "protocol": "TMD8 human B-cell lymphoma cells were cultured in a 37° C., 5% CO2 incubator. The composition of medium was RPMI1640 (GIBCO, Cat #22400-089); the supplementary compositions were 10% FBS (Hyclone, Cat #SH30084.03); 1% PenStrep (Thermo, Cat #SV30010).\nas §1, §2, §3"}, "human IRAK4": {"target": "T1, human IRAK4 (Homo sapiens, UniProt Q9NWZ3)", "T1 construct": "purchased Reaction Biology Corp", "T1 sequence (Q9NWZ3 1-460)": "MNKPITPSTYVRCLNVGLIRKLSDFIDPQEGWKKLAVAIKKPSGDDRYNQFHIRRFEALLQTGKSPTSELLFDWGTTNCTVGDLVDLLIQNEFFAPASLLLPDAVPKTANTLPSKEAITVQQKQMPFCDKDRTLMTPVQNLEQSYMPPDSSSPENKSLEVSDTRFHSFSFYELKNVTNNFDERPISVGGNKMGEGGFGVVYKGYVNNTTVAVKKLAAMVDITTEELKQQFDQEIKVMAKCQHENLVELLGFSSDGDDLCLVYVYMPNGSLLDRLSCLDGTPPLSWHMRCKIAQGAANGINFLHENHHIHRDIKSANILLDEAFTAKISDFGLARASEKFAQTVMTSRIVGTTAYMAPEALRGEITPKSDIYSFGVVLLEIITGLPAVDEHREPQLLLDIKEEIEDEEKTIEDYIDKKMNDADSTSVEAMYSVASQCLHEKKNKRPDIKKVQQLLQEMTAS", "assay": "In vitro IRAK4 kinase activity, 33P isotope-labeled kinase activity assay (Reaction Biology Corp)", "assay_type": "biochemical", "protocol": "The IC50 values were determined using ^33P isotope-labeled kinase activity assay (Reaction Biology Corp) to evaluate the inhibitory ability of the tested compounds on human IRAK4.\n(§4) Buffer conditions: 20 mM Hepes (pH 7.5), 10 mM MgCl2, 1 mM EGTA, 0.02% Brij35, 0.02 mg/mL BSA, 0.1 mM Na3VO4, 2 mM DTT, 1% DMSO.\nTest procedure: At room temperature, the tested compound was dissolved in DMSO to prepare a 10 mM solution for later use. The substrate was dissolved in a newly prepared buffer solution, and the tested IRAK4 kinase was added thereto and mixed evenly. The DMSO solution dissolved with the tested compound was added to the above reaction mixture mixed evenly using acoustic technique (Echo 550). After incubation for 15 minutes, ^33P-ATP was added to initiate the reaction."}, "human BTK": {"target": "T2, human BTK (Homo sapiens, UniProt Q06187)", "T2 construct": "purchased Reaction Biology Corp", "T2 sequence (Q06187 whole entry)": "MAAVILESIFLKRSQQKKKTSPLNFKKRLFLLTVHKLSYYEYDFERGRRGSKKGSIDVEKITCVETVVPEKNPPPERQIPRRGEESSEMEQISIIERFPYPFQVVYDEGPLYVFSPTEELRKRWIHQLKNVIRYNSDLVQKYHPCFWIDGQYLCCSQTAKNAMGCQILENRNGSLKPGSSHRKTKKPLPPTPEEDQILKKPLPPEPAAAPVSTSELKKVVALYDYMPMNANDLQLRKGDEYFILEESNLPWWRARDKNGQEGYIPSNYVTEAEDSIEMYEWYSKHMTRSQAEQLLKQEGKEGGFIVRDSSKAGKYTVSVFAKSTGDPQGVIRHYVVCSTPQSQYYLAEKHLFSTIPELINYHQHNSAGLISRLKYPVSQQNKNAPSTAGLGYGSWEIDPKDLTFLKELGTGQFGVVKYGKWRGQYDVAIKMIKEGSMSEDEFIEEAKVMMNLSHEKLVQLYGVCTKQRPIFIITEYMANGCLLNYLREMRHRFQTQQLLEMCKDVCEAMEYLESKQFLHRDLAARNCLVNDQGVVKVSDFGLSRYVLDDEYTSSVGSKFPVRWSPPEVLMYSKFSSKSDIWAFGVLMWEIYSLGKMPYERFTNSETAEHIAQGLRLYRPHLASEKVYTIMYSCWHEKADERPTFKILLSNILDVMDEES", "assay": "In vitro BTK kinase activity, 33P isotope-labeled kinase activity assay (Reaction Biology Corp)", "assay_type": "biochemical", "conditions": "33P-ATP, 2 hours at room temperature", "protocol": "The IC50 values were determined using ^33P isotope-labeled kinase activity assay (Reaction Biology Corp) to evaluate the inhibitory ability of the tested compounds on human BTK.\nas §4\nTest procedure: At room temperature, the tested compound was dissolved in DMSO to prepare a 10 mM solution for later use. The substrate was dissolved in a newly prepared buffer solution, and the tested BTK kinase was added thereto and mixed evenly. The compound dissolved in DMSO was added to the kinase reaction mixture through Echo 550 (Acoustic technology; Nanoliter range). After incubation for 20 minutes at room temperature, ^33P-ATP was added to initiate the reaction. The reaction was carried out at room temperature for 2 hours, and the radioactivity of the reaction liquid point was detected by filtration-binding method with P81 ion exchange filter paper. The kinase activity data were expressed by comparing the kinase activity of the group containing the tested compound with the kinase activity of the blank group (only containing DMSO), and the IC50 value was obtained by curve fitting by Prism4 software (GraphPad), the experimental results are shown in Table 10."}, "OCI-LY3 cell line": {"tested_on": "OCI-LY3 cell line", "assay": "OCI-LY3 cell proliferation inhibition (CTG)", "assay_type": "cell-based", "conditions": "Homo sapiens, incubated for 72 hours", "protocol": "The tumor cell line used in this experiment was provided by Nanjing Cobioer Biotechnology Co., Ltd. See Table 13 below for specific information.\nThe tumor cell lines OCI-LY3 were used to detect the effect of the compound on inhibiting tumor cell proliferation in vitro. The OCI-LY3 cell line was cultured in the corresponding medium at 37° C. and 5% CO2, and the logarithmic growth phase cells were used in the experimental plating. The cells were collected and centrifuged at 800 rpm for 5 minutes, and the culture medium was re-suspended and spread in a 96-well plate. After incubating overnight in a 37° C., 5% CO2 incubator, the cells with different concentration gradients (10 μL of prepared diluent of the tested compound) were incubated for 72 hours, and the cell culture plates were incubated with CTG reagent at room temperature and away from light for 30 minutes, and then recovered to room temperature. 100 μL/hole of CTG solution was added into the biosafety cabinet away from light, and the plate shaker was shaken and mixed evenly away from light for 2 minutes, and incubated at room temperature away from light for 10 minutes. The luminescence values were read and recorded using the Perkin Elmer Envision 2104 MuLtilabel Reader.\nThe results of luminescence values measured at each drug concentration were normalized with the luminescence values of the blank control group, and the ratio of this value to the DMSO group was taken as the cell inhibition rate (%). Using GraphPad software, the logarithm of drug concentration (log drug concentration) versus inhibition rate was plotted, and the software automatically fitted and calculated IC50 value and 95% confidence limit value by log (inhibitor) vs. normalized response algorithm of nonlinear regression."}, "[4]": {"tested_on": "human B-cell lymphoma OCI-LY10 cell subcutaneous xenograft tumor", "assay": "Human B-cell lymphoma OCI-LY10 cell subcutaneous xenograft tumor mouse model", "assay_type": "in vivo", "conditions": "10 mpk, 18 days after the start of administration, p<0.001", "protocol": "The objective of the experiment was to study the efficacy of WX001 as the test drug on human B-cell lymphoma OCI-LY10 cell subcutaneous xenograft tumor in CB17 SCID mouse model.\nOCI-LY10 human B-cell lymphoma cells were cultured in a 37° C., 5% CO2 incubator.\nOCI-LY10 tumor cells were cultured and passaged, and 0.2 mL (1×10^7 cells) OCI-LY10 cells were subcutaneously inoculated on the right back of each […] (with Matrigel, volume ratio 1:1), and the group administration was started when the average tumor volume reached 167 mm^3. The health status and death of animals were monitored every day, and routine examinations included observing the effects of tumor growth and drug treatment on daily behaviors of animals, such as behavioral activities, food intake and water intake, weight change (weight was measured twice a week), tumor size (tumor volume was measured twice a week), appearance signs or other abnormal conditions.\nThe experimental index was to investigate whether the tumor growth was inhibited, delayed or cured. Including the measurement of tumor volume (TV), and the calculation of the compound's anti-tumor efficacy using TGI (%) or the relative tumor proliferation rate T/C (%).\nTV=0.5a×b^2, a and b represented the long diameter and short diameter of the tumor, respectively.\nT/C %=TRTV/CRTV×100% (TRTV: RTV in treatment group; CRTV: RTV in negative control group). Relative tumor volume (RTV) was calculated according to the results of tumor measurement, and the calculation formula was RTV=Vt/V0, wherein V0 was the average tumor volume measured at the time of group administration (i.e., d0), Vt was the average tumor volume at a certain measurement, and TRTV and CRTV were the data taken at the same day."}}, "note": "pIC50: −log10 of the molar value. Where two headings read alike, the source gives them in different places."}
{"smiles": "Cc1cc(-c2nc(C(=O)Nc3cn4cc(CCC(=O)O)nc4cc3N3CCC(C)(C)CC3)co2)ccn1", "note": "[WX016]", "values": [{"measurement": "pIC50", "setting": "[1]", "result": 6.33}, {"measurement": "pIC50", "setting": "[2]", "result": 6.77}, {"measurement": "pIC50", "setting": "[3]", "result": 6.66}, {"measurement": "pIC50", "setting": "human IRAK4", "result": 9.05}, {"measurement": "pIC50", "setting": "human BTK", "result": 8.05}]}
{"smiles": "Cc1cc(-c2nc(C(=O)Nc3cn4cc(C(C)(C)O)nc4cc3N3CCCCC3)co2)ccn1", "note": "[WX040]", "values": [{"measurement": "pIC50", "setting": "[1]", "result": 7.06}, {"measurement": "pIC50", "setting": "[2]", "result": 7.42}, {"measurement": "pIC50", "setting": "human IRAK4", "result": 8.92}, {"measurement": "pIC50", "setting": "OCI-LY3 cell line", "result": 6.55}, {"measurement": "pIC50", "setting": "human BTK", "result": 8.48}]}
{"smiles": "Cc1cc(-c2nc(C(=O)Nc3cn4cc(CCC(C)(C)O)nc4cc3N3CCC(C(C)(C)O)CC3)co2)ccn1", "note": "[WX045]", "values": [{"measurement": "pIC50", "setting": "[1]", "result": 7.11}, {"measurement": "pIC50", "setting": "human IRAK4; 33P-ATP, 120 minutes at room temperature, read-out: IRAK4/IC50", "result": 8.47}, {"measurement": "pIC50", "setting": "OCI-LY3 cell line", "result": 6.57}, {"measurement": "pIC50", "setting": "human BTK", "result": 7.54}]}
{"smiles": "Cc1cc(-c2nc(C(=O)Nc3cn4cc(CCC(C)(C)O)nc4cc3-c3ccccc3)co2)ccn1", "note": "[WX021]", "values": [{"measurement": "pIC50", "setting": "[1]", "result": 6.77}, {"measurement": "pIC50", "setting": "[2]", "result": 7.82}, {"measurement": "pIC50", "setting": "[3]", "result": 6.67}, {"measurement": "pIC50", "setting": "human IRAK4", "result": 9.30}, {"measurement": "pIC50", "setting": "human BTK", "result": 7.86}]}
{"smiles": "C=CC(=O)N1CCC[C@@H](n2nc(-c3ccc(Oc4ccccc4)cc3)c3c(N)ncnc32)C1", "note": "[Ibrutinib, reference compound]", "values": [{"measurement": "T/C value", "setting": "[4]", "result": 39, "unit": "%"}, {"measurement": "TGI value", "setting": "[4]", "result": 85, "unit": "%"}]}
